Test results from US20240306641A1, “P-BOOSTER” (EUROCHEM ANTWERPEN, priority 2021, published 2024).

Assays:
[1] = tested on: Arabidopsis thaliana Columbia-0; assay: Arabidopsis horizontal plate leaf area assay; assay type: in vivo; settings: Arabidopsis horizontal plates (Table 4); control without compound 63
Procedure: (§1) All Arabidopsis plant experiments were performed using the Arabidopsis thaliana Columbia-0 background. The Arabidopsis pSPX1::GUS line is described in the […] 2008, 54: 965-975. For rice, the cultivar Nipponbare was used. For maize, the cultivars DKC 2931 and 8104 were used for regular pot experiments and sand-based pot experiments, respectively. For soybean, the cultivar Primus was used. […] The medium was solidified due to the addition of 0.6% Gelrite, unless stated otherwise. In case of vertical plates (root length and root hair measurements), the medium was supplied with 0.5% of sucrose and 1 μM (low phosphate, 1 μM KH2PO4, 9.9 mM KCl), 10 μM (low phosphate 10 μM KH2PO4, 9.9 mM KCl) or 1.25 mM KH2PO4 (high phosphate). Arabidopsis seeds were stratified for 2 days at 4° C. before germination. Seedlings were germinated in climate-controlled growth chambers at 22° C. under continuous light ([…] m^−2 s^−1). Husked rice seeds were germinated on wetted Whatman paper for 2 days at 37° C. and then transferred to Sterivent boxes or square Petri dishes with solid medium. Maize and soybean seeds were wetted 24 hours at room temperature prior to sowing in pots.
Arabidopsis primary root growth experiments were done on MS1/2 on vertical standing plates and roots were measured 11 days after germination. Roots were imaged using a flatbed scanner (EPSON Expression 11000XL) and root length was measured using ImageJ software. Arabidopsis shoot biomass was determined in 11 days after germination and growth on vertical standing plates with modMS. Arabidopsis leaf area was measured 21 days after germination on horizontal plates with modMS medium. Plates were scanned from the top using a flatbed scanner (EPSON Expression 11000XL) and the visible leaf area was measured using ImageJ software. Rice plate experiments used vertically standing Petri dishes containing MS1/2 medium (low phosphate—0.001 mM) solidified with 0.8% washed agar. Plant height was measured 11 days after germination. Rice box experiments used modMS medium and a low phosphate condition of 0.025 mM phosphate. Plant height was measured 13 days after germination. All growth experiments occurred with 10 μM of compound and in low phosphate conditions, unless stated otherwise. Controls always received the same DMSO concentration.

maize cultivar DKC2931 = assay: Long term maize pot experiment, Phenovision platform, DKC2931; assay type: in vivo; settings: DKC2931, end point after 70 days
Procedure: (§2) Regular Arabidopsis, soybean and maize pot experiments used an unfertilized potting soil, which was supplemented at the start of the experiment with 50 ml H2O containing 0.25 g/l NH4NO3 and 0.44 g/l (high phosphate) or no (maize and soybean) or 0.11 g/l KH2PO (Arabidopsis) for low phosphate conditions. For the sand-based maize pot experiment, sand was supplemented with 50 ml H2O containing 0.25 g/l NH4NO3 and 0.38 g/l (high phosphate) or 0.02 g/l (low phosphate) KH2PO4. Potassium was balanced via addition of KCl. Compound concentration was 10 μM, calculated based on the total water content after watering, and was added at the start of the experiment (Arabidopsis) or once a week (maize). Indexed chlorophyll contents were received via a SPAD 502 Plus Chlorophyll Meter. All parameters in the sand experiment, except the rate of leaf 4 (measured the first 4 days after emergence), were measured 19 days after sowing. Measurements in the pot experiments with potting soil were done after 4 weeks of growth, except for leaf 5, which was measured at 26 days. The long term maize pot experiment was performed on the automated Phenovision platform (see Mertens et al, 2021, https://doi.org/10.3389/fpls.2021.640914) with maize cultivars B104 and DKC2931. End point measurements occurred after 90 days (B104) or 70 days (DKC2931). Plants were grown on an unfertilized potting soil, which was fertilized bi-weekly with 50 mL modified Hoagland solution (2.5× concentrated; but with 0.25 mM KH2PO4).

[2] = tested on: SPX1 phosphate starvation biomarker (pSPX1::GUS); assay: Chemical activity assessment: SPX1 suppression in Arabidopsis pSPX1::GUS reporter line (GUS stained area); assay type: in vivo, Arabidopsis thaliana; settings: 50 μM compound, low phosphate modMS liquid medium, 96-well, 7 days after germination; low phosphate control of same plate
Procedure: as §1
For the chemical activity assessment 3 to 8 seeds per well of Arabidopsis pSPX1::GUS line were sown in 96-well plates containing 150 μl of low phosphate modMS liquid medium containing 1% of sucrose. Compounds were added in 50 μM concentration, starting from a 5 mM stock of compounds solved in DMSO. Different chemical substances were separately added to different wells. Per plate, 16 control wells were used, 8 containing only the low phosphate medium and 1% DMSO, and 8 containing high phosphate medium and 1% DMSO. 7 days after germination, plates were scanned using a flatbed scanner (EPSON Expression 11000XL) and analyzed for leaf size. After scanning, the growth medium was replaced by GUS staining solution (see Plant Mol. Biol. Rep. 1994, 12: 37-42 for details) and incubated for 1.5 hours at 37° C. The plates were scanned a second time and analyzed for GUS signal area. Measurements of both leaf area and GUS signal area were conducted by filtering out and measure the green and blue signal, respectively using ImageJ software. If the green leaf area was 50% or less than the control, samples were omitted. Additionally, all results were visually screened for leaf size and GUS signal.
To identify new substances that suppress the expression of the SPX1 phosphate starvation biomarker, we used an Arabidopsis SPX1 reporter line pSPX1::GUS. […] This observation was confirmed in two experimental repeats.

[3] = tested on: Arabidopsis thaliana Columbia-0; assay: Root hair number and length quantification, Arabidopsis vertical plate; assay type: in vivo; settings: for activity at 1 µM: 1 μM compound
Procedure: as §1
Roots were imaged using a stereomicroscope or a VHX-6000. Number and length of the root hairs parallel to the medium surface was determined at 4 to 6 mm above the root meristem. Root hair length was measured using the ImageJ software.

maize cultivar B104 = assay: Long term maize pot experiment, Phenovision platform, B104; assay type: in vivo; settings: B104, end point after 90 days
Procedure: as §2

maize cultivar DKC 2931 = assay: Regular maize pot experiment (potting soil); assay type: in vivo; settings: low phosphate, 10 μM compound
Procedure: as §1, §2

[4] = Arabidopsis thaliana, read-out: Total root hair length per root (in % compared to the control)
[5] = Arabidopsis vertical plate, high phosphate

For `CN(CCCN)c1ccccc1` [Example 4], the Average leaf area [1] was 72 mm^2.
For `CCN(CCCN)c1ccccc1` [Example 2], the Biomass (maize cultivar DKC2931) was 31 g, the Plant height (maize cultivar DKC2931) was 1010 mm and the “Plants with developed ears” value (maize cultivar DKC2931) was 100%. For the same compound, the Sum of leaf length (maize cultivar DKC2931) was 3950 mm, the “GUS (SPX1) stained area normalized to the number of seeds” value (“GUS (SPX1) stained area normalized” below) [2] was 21 pixels and the activity at 1 µM [3, 4] was 886%. For the same compound, the “Average root hair length per root in high phosphate conditions” value [3, 5] was 0.28 mm, the “Root hair number in high phosphate conditions (one plane in 2 mm region)” value [3, 5] was 8 and the “Total root hair length per root in high phosphate conditions” value [3, 5] was 0.27 cm. For the same compound, the Biomass (maize cultivar B104) was 37 g, the Plant height (maize cultivar B104) was 719 mm and the “Plants with developed ears” value (maize cultivar B104) was 62%. It also gave a Sum of leaf length (maize cultivar B104) of 6050 mm, a Plant height (maize cultivar DKC 2931; 4 weeks) of 62 cm and a Shoot weight (maize cultivar DKC 2931; 4 weeks) of 4.5 g. For the same compound, the “Leaf 5” value (maize cultivar DKC 2931; 26 days) was 46 cm.
With `NCCCNc1ccccc1` [Example 3] the Average leaf area [1] was 69 mm^2.
`Cc1ccccc1-c1nnc(SCC(=O)NCCCN(C)c2ccccc2)n1C` [Example 11] was tested, and the “GUS (SPX1) stained area normalized” value [2] was 800 pixels.
`CN(CCCNC(=O)CSc1nnnn1-c1ccccc1)c1ccccc1` [Example 10] was tested, and the “GUS (SPX1) stained area normalized” value [2] was 298 pixels.
`CCN(CCCNC)c1ccccc1` [Example 5] was tested, and the Average leaf area [1] was 65 mm^2.
`CCN(C)c1ccccc1` [Example 9] was tested, and the activity at 1 µM [3, 4] was 390%, the activity at 3 µM ([3]; Arabidopsis thaliana, 3 μM compound, read-out: Total root hair length per root (in % compared to the control)) was 313% and the activity at 10 µM ([3]; Arabidopsis thaliana, 10 μM compound, read-out: Total root hair length per root (in % compared to the control)) was 758%.
`CCN(CCCNC(=O)CNC(=O)c1cc(C)cc(C)c1)c1ccccc1` [Example 6] was tested, and the “GUS (SPX1) stained area normalized” value [2] was 8 pixels.
